Experimental data reported in ChEMBL document CHEMBL5120927, “LEGO-Lipophosphonoxins: A Novel Approach in Designing Membrane Targeting Antimicrobials” (J Med Chem, 2022).
Converted amounts (≈) assume the structure as drawn.

Tests used:
Staphylococcus aureus [1] = experiment: Antibacterial activity against wild type Staphylococcus aureus 4502/A assessed as reduction in microbial growth incubated for 24 hrs by microdilution assay; type: functional
Staphylococcus aureus [2] = experiment: Antibacterial activity against wild type Staphylococcus aureus 4740/B assessed as reduction in microbial growth incubated for 24 hrs by microdilution assay; type: functional
Enterococcus faecium = experiment: Antibacterial activity against vancomycin resistant Enterococcus faecium 419/ANA assessed as reduction in microbial growth incubated for 24 hrs by microdilution assay; type: functional
Pseudomonas aeruginosa [3] = experiment: Antibacterial activity against Pseudomonas aeruginosa ATCC 27853 = CCM 3955 assessed as inhibition of bacterial growth incubated for 24 hrs by microdilution assay; type: functional
Staphylococcus aureus [4] = experiment: Antibacterial activity against […] Staphylococcus aureus 4461/A assessed as reduction in microbial growth incubated for 24 hrs by microdilution assay; type: functional
Staphylococcus aureus [5] = experiment: Antibacterial activity against Staphylococcus aureus ATCC 29213 = CCM 4223 assessed as inhibition of bacterial growth incubated for 24 hrs by microdilution assay; type: functional
Enterococcus faecalis = experiment: Antibacterial activity against Enterococcus faecalis ATCC 29212 = CCM 4224 assessed as inhibition of bacterial growth incubated for 24 hrs by microdilution assay; type: functional
Staphylococcus aureus [6] = experiment: microbe, parasite or virus in culture; conditions: 4880/C, 24 h
Description: Antibacterial activity against wild type Staphylococcus aureus 4880/C assessed as reduction in microbial growth incubated for 24 hrs by microdilution assay

Staphylococcus aureus [7] = experiment: Antibacterial activity against […] Staphylococcus aureus 4463/A assessed as reduction in microbial growth incubated for 24 hrs by microdilution assay; type: functional
Staphylococcus aureus [8] = experiment: microbe, parasite or virus in culture; conditions: 5017/C, 24 h
Description: Antibacterial activity against wild type Staphylococcus aureus 5017/C assessed as reduction in microbial growth incubated for 24 hrs by microdilution assay

Staphylococcus aureus [9] = experiment: Antibacterial activity against wild type Staphylococcus aureus 4883/C assessed as reduction in microbial growth incubated for 24 hrs by microdilution assay; type: functional
Staphylococcus aureus [10] = experiment: Antibacterial activity against wild type Staphylococcus aureus 4788/B assessed as reduction in microbial growth incubated for 24 hrs by microdilution assay; type: functional
Staphylococcus aureus [11] = experiment: Antibacterial activity against wild type Staphylococcus aureus 5079/C assessed as reduction in microbial growth incubated for 24 hrs by microdilution assay; type: functional
[12] = Gradient chromatographic hydrophobicity index of the compound at pH 3.7 by HPLC analysis; type: ADME
Staphylococcus aureus [13] = experiment: Antibacterial activity against wild type Staphylococcus aureus 4968/C assessed as reduction in microbial growth incubated for 24 hrs by microdilution assay; type: functional
Staphylococcus aureus [14] = experiment: microbe, parasite or virus in culture; conditions: 4862/C, 24 h
Description: Antibacterial activity against wild type Staphylococcus aureus 4862/C assessed as reduction in microbial growth incubated for 24 hrs by microdilution assay

Staphylococcus aureus [15] = experiment: Antibacterial activity against wild type Staphylococcus aureus 4504/A assessed as reduction in microbial growth incubated for 24 hrs by microdilution assay; type: functional
Staphylococcus aureus [16] = experiment: Antibacterial activity against wild type Staphylococcus aureus 4561/A assessed as reduction in microbial growth incubated for 24 hrs by microdilution assay; type: functional
Staphylococcus aureus [17] = experiment: Antibacterial activity against […] Staphylococcus aureus 4460/A assessed as reduction in microbial growth incubated for 24 hrs by microdilution assay; type: functional
Staphylococcus aureus [18] = experiment: Antibacterial activity against wild type Staphylococcus aureus 4515/A assessed as reduction in microbial growth incubated for 24 hrs by microdilution assay; type: functional
Escherichia coli [19] = experiment: Antibacterial activity against Escherichia coli ATCC 25922 = CCM 3954 assessed as inhibition of bacterial growth incubated for 24 hrs by microdilution assay; type: functional
Staphylococcus aureus [20] = experiment: Antibacterial activity against wild type Staphylococcus aureus 78/CF assessed as reduction in microbial growth incubated for 24 hrs by microdilution assay; type: functional
Staphylococcus aureus [21] = experiment: Antibacterial activity against wild type Staphylococcus aureus 77/CF assessed as reduction in microbial growth incubated for 24 hrs by microdilution assay; type: functional
Escherichia coli [22] = experiment: Antibacterial activity against Escherichia coli ATCC 25922 = CCM 3954 assessed as inhibition of bacterial growth incubated for 24 hrs in presence of BSA by microdilution assay; type: functional
Staphylococcus aureus [23] = experiment: Antibacterial activity against methicillin resistant Staphylococcus aureus 4591/A assessed as reduction in microbial growth incubated for 24 hrs by microdilution assay; type: functional
Staphylococcus aureus [24] = experiment: Antibacterial activity against wild type Staphylococcus aureus 4566/A assessed as reduction in microbial growth incubated for 24 hrs by microdilution assay; type: functional
Staphylococcus aureus [25] = experiment: Antibacterial activity against wild type Staphylococcus aureus 4904/C assessed as reduction in microbial growth incubated for 24 hrs by microdilution assay; type: functional
Staphylococcus aureus [26] = experiment: Antibacterial activity against wild type Staphylococcus aureus 4717/B assessed as reduction in microbial growth incubated for 24 hrs by microdilution assay; type: functional
Staphylococcus aureus [27] = experiment: Antibacterial activity against wild type Staphylococcus aureus 4482/A assessed as reduction in microbial growth incubated for 24 hrs by microdilution assay; type: functional
[28] = Hemolytic activity in human RBC assessed as haemoglobin release measured after 3 hr; type: toxicity, cell-based, Erythrocyte; conditions: red blood cells (erythrocytes)
[29] = system: Staphylococcus epidermidis; experiment: Antibacterial activity against Staphylococcus epidermidis CCM 7221 assessed as inhibition of bacterial growth incubated for 24 hrs by microdilution assay; type: functional
Staphylococcus aureus [30] = experiment: Antibacterial activity against wild type Staphylococcus aureus 4557/A assessed as reduction in microbial growth incubated for 24 hrs by microdilution assay; type: functional
Escherichia coli [31] = experiment: Antibacterial activity against multidrug-resistant Escherichia coli CE5556 expressing CTX-M-15 assessed as reduction in microbial growth incubated for 24 hrs by microdilution assay; type: functional
Pseudomonas aeruginosa [32] = experiment: Antibacterial activity against multidrug-resistant Pseudomonas aeruginosa assessed as reduction in microbial growth incubated for 24 hrs by microdilution assay; type: functional
Staphylococcus aureus [33] = experiment: Antibacterial activity against Staphylococcus aureus ATCC 29213 = CCM 4223 assessed as inhibition of bacterial growth incubated for 24 hrs in presence of BSA by microdilution assay; type: functional
Staphylococcus aureus [34] = experiment: Antibacterial activity against wild type Staphylococcus aureus 4679/B assessed as reduction in microbial growth incubated for 24 hrs by microdilution assay; type: functional
Staphylococcus aureus [35] = experiment: Antibacterial activity against wild type Staphylococcus aureus 4738/B assessed as reduction in microbial growth incubated for 24 hrs by microdilution assay; type: functional
[36] = Cytotoxicity against human HepG2 cells assessed as reduction in cell viability; type: toxicity, cell-based
Staphylococcus aureus [37] = experiment: Antibacterial activity against wild type methicillin resistant Staphylococcus aureus 4561/A assessed as reduction in microbial growth incubated for 24 hrs by microdilution assay; type: functional
Staphylococcus aureus [38] = experiment: Antibacterial activity against wild type methicillin resistant Staphylococcus aureus 5017/C assessed as reduction in microbial growth incubated for 24 hrs by microdilution assay; type: functional
Staphylococcus aureus [39] = experiment: Antibacterial activity against wild type methicillin resistant Staphylococcus aureus 4968/C assessed as reduction in microbial growth incubated for 24 hrs by microdilution assay; type: functional

Compound | MIC (Staphylococcus aureus [1]) [µg/mL] | MIC (Staphylococcus aureus [2]) [µg/mL] | MIC (Enterococcus faecium) [µg/mL] | MIC (Pseudomonas aeruginosa [3]) [µg/mL] | MIC (Staphylococcus aureus [4]) [µg/mL] | MIC (Staphylococcus aureus [5]) [µg/mL] | MIC (Enterococcus faecalis) [µg/mL] | MIC (Staphylococcus aureus [6]) [µg/mL] | MIC (Staphylococcus aureus [7]) [µg/mL] | MIC (Staphylococcus aureus [9]) [µg/mL] | CHI [12] | MIC (Escherichia coli [19]) [µg/mL] | MIC (Escherichia coli [22]) [µg/mL] | MIC (Staphylococcus aureus [23]) [µg/mL] | HC50 at 3 h [28] [µg/mL] | MIC [29] [µg/mL] | MIC (Escherichia coli [31]) [µg/mL] | MIC (Pseudomonas aeruginosa [32]) [µg/mL] | MIC (Staphylococcus aureus [33]) [µg/mL] | CC50 [36] [µM] | further results
CCCCCCOP(=O)(CCN(CCCNC(=N)N)CCCNC(=N)N)OCCCCCCCCOP(=O)(CCN(CCCNC(=N)N)CCCNC(=N)N)OCCCCCC.Cl.Cl.Cl.Cl.Cl.Cl (stereo not drawn) | 0.5 | 0.5 | 16 | 8 | 0.5 | 5 | 8 | 0.5 | 0.5 | 0.5 | 31.5 | 16 | 2 | 5 | 139 | 0.5 | 5 | 8 | 0.5 | – | MIC (Staphylococcus aureus [8]): 0.5 µg/mL; MIC (Staphylococcus aureus [10]): 0.5 µg/mL; MIC (Staphylococcus aureus [11]): 0.5 µg/mL; MIC (Staphylococcus aureus [13]): 0.5 µg/mL; MIC (Staphylococcus aureus [14]): 0.5 µg/mL; MIC (Staphylococcus aureus [15]): 0.25 µg/mL; MIC (Staphylococcus aureus [16]): 0.5 µg/mL; MIC (Staphylococcus aureus [17]): 0.5 µg/mL; MIC (Staphylococcus aureus [18]): 0.5 µg/mL; MIC (Staphylococcus aureus [20]): 0.5 µg/mL; MIC (Staphylococcus aureus [21]): 0.5 µg/mL; MIC (Staphylococcus aureus [24]): 0.5 µg/mL; MIC (Staphylococcus aureus [25]): 0.5 µg/mL; MIC (Staphylococcus aureus [26]): 0.25 µg/mL; MIC (Staphylococcus aureus [27]): 0.5 µg/mL; MIC (Staphylococcus aureus [30]): 0.5 µg/mL; MIC (Staphylococcus aureus [34]): 0.5 µg/mL; MIC (Staphylococcus aureus [35]): 0.5 µg/mL
Cl.Cl.Cl.Cl.Cl.Cl.NCCCN(CCCN)CCP(=O)(OCCCCCOP(=O)(CCN(CCCN)CCCN)OCC12CC3CC(CC(C3)C1)C2)OCC12CC3CC(CC(C3)C1)C2 (stereo not drawn) | – | – | 64 | 32 | – | 2 | 4 | – | – | – | 34.1 | 2 | 2 | 2 | 415 | 2 | 4 | 8 | 2 | > 99 | –
CCCCC/C=C\CCOP(=O)(CCN(CCCN)CCCN)OCCCCCOP(=O)(CCN(CCCN)CCCN)OCC/C=C\CCCCC.Cl.Cl.Cl.Cl.Cl.Cl (stereo not drawn) | – | – | 32 | 4 | – | 1 | 4 | – | – | – | 37.2 | 2 | 1 | 1 | > 500 | 1 | 1 | 4 | 2 | 97.8 | –
CCCCC/C=C\CCOP(=O)(CCN(CCCN)CCCN)OCCCCCCOP(=O)(CCN(CCCN)CCCN)OCC/C=C\CCCCC.Cl.Cl.Cl.Cl.Cl.Cl (stereo not drawn) | – | – | 8 | 2 | – | 0.5 | 2 | – | – | – | 37.5 | 1 | 0.5 | 1 | 262 | 0.5 | 1 | 2 | 2 | 30.8 | –
Cc1onc(-c2ccccc2)c1C(=O)N[C@@H]1C(=O)N2[C@@H]1SC(C)(C)[C@@H]2C(=O)O [OXACILLIN] | 0.25 | 0.25 | – | – | 0.25 | – | – | 0.25 (≈ 0.623 µM) | 0.25 | 0.25 | – | – | – | – | – | – | – | – | – | – | MIC (Staphylococcus aureus [37]): > 8 µg/mL; MIC (Staphylococcus aureus [10]): 0.125 µg/mL; MIC (Staphylococcus aureus [11]): 0.25 µg/mL; MIC (Staphylococcus aureus [14]): 0.25 µg/mL (≈ 0.623 µM); MIC (Staphylococcus aureus [15]): 0.25 µg/mL; MIC (Staphylococcus aureus [17]): 0.25 µg/mL; MIC (Staphylococcus aureus [18]): 0.25 µg/mL; MIC (Staphylococcus aureus [20]): 0.25 µg/mL; MIC (Staphylococcus aureus [21]): 0.25 µg/mL; MIC (Staphylococcus aureus [38]): > 16 µg/mL; MIC (Staphylococcus aureus [24]): 0.25 µg/mL; MIC (Staphylococcus aureus [25]): 0.25 µg/mL; MIC (Staphylococcus aureus [26]): 0.25 µg/mL; MIC (Staphylococcus aureus [27]): 0.25 µg/mL; MIC (Staphylococcus aureus [30]): 0.25 µg/mL; MIC (Staphylococcus aureus [39]): > 16 µg/mL; MIC (Staphylococcus aureus [34]): 0.25 µg/mL; MIC (Staphylococcus aureus [35]): 0.25 µg/mL
